Reference: patent publication US5968910A, “Compositions containing two or three inhibitors of different HIV reverse transcriptases” (priority 1994, dated 1999)

Test system: HIV-1
Experiment: Breakthrough of mutant HIV-1 strains in CEM cell cultures, single drugs and double/triple combinations
Format: cell-based
Procedure: The culture medium consisted of RPMI 1640 containing 10% fetal bovine serum, 2 mM L-glutamine, and 0.075% NaHCO3. The multiplicity of the initial infection was ~1000 times the CCID50 (50% cell culture infective dose). Passages were performed every 3 to 4 days by adding 0.5 to 1.0 ml of the infected culture supernatant to 5 ml of a suspension containing 4×10^5 uninfected CEM cells per ml. Syncytium formation was used as a parameter of virus breakthrough in the cell cultures. In the drug combination experiments, the compounds were combined at the same initial concentrations as used for the two lowest concentrations in the single-drug experiments.
Compound IV, BHAP and TSAO-m^3 T were added to HIV-1-infected CEM cell cultures at 0.04, 0.10 and 0.25 ug/ml (Compound IV and BHAP) or 1.0, 2.5 and 5.0 μg/ml (TSAO-m^3 T). In addition, various double- and triple-drug combinations of Compound IV, BHAP and TSAO-m^3 T were performed, combining these inhibitors at their lowest (0.04 μg/ml) or intermediary (0.1 μg/ml) concentration as used in the single-drug experiments.

Which results are given for Cc1cn([C@@H]2O[C@H](CO[Si](C)(C)C(C)(C)C)[C@@]3(OS(=O)(=O)C=C3N)[C@H]2O[Si](C)(C)C(C)(C)C)c(=O)n(C)c1=O [TSAO-m^3 T]?
HIV-1-induced syncytium formation in CEM cells (single drug 1.0 μg/ml, day 4 post infection): 0 percentage of control; HIV-1-induced syncytium formation in CEM cells (single drug 1.0 μg/ml, day 7 post infection): 0 percentage of control; HIV-1-induced syncytium formation in CEM cells (single drug 1.0 μg/ml, day 11 post infection): 0 percentage of control; HIV-1-induced syncytium formation in CEM cells (single drug 1.0 μg/ml, day 14 post infection): 12.5 percentage of control; HIV-1-induced syncytium formation in CEM cells (single drug 1.0 μg/ml, day 18 post infection): 75 percentage of control; HIV-1-induced syncytium formation in CEM cells (single drug 1.0 μg/ml, day 21 post infection): 100 percentage of control; HIV-1-induced syncytium formation in CEM cells (single drug 1.0 μg/ml, day 25 post infection): 100 percentage of control; HIV-1-induced syncytium formation in CEM cells (single drug 1.0 μg/ml, day 28 post infection): 100 percentage of control; HIV-1-induced syncytium formation in CEM cells (single drug 1.0 μg/ml, day 32 post infection): 100 percentage of control; HIV-1-induced syncytium formation in CEM cells (single drug 1.0 μg/ml, day 35 post infection): 100 percentage of control; HIV-1-induced syncytium formation in CEM cells (single drug 1.0 μg/ml, day 39 post infection): 100 percentage of control; HIV-1-induced syncytium formation in CEM cells (single drug 1.0 μg/ml, day 42 post infection): 100 percentage of control; HIV-1-induced syncytium formation in CEM cells (single drug 1.0 μg/ml, day 46 post infection): 100 percentage of control; HIV-1-induced syncytium formation in CEM cells (single drug 1.0 μg/ml, day 49 post infection): 100 percentage of control; HIV-1-induced syncytium formation in CEM cells (single drug 1.0 μg/ml, day 53 post infection): 100 percentage of control; HIV-1-induced syncytium formation in CEM cells (single drug 1.0 μg/ml, day 56 post infection): 100 percentage of control; HIV-1-induced syncytium formation in CEM cells (single drug 1.0 μg/ml, day 60 post infection): 100 percentage of control; HIV-1-induced syncytium formation in CEM cells (single drug 1.0 μg/ml, day 64 post infection): 100 percentage of control; HIV-1-induced syncytium formation in CEM cells (single drug 1.0 μg/ml, day 67 post infection): 100 percentage of control; HIV-1-induced syncytium formation in CEM cells (single drug 1.0 μg/ml, day 71 post infection): 100 percentage of control; HIV-1-induced syncytium formation in CEM cells (single drug 1.0 μg/ml, day 74 post infection): 100 percentage of control; HIV-1-induced syncytium formation in CEM cells (single drug 1.0 μg/ml, day 77 post infection): 100 percentage of control; HIV-1-induced syncytium formation in CEM cells (single drug 2.5 μg/ml, day 4 post infection): 0 percentage of control; HIV-1-induced syncytium formation in CEM cells (single drug 2.5 μg/ml, day 7 post infection): 0 percentage of control; HIV-1-induced syncytium formation in CEM cells (single drug 2.5 μg/ml, day 11 post infection): 0 percentage of control; HIV-1-induced syncytium formation in CEM cells (single drug 2.5 μg/ml, day 14 post infection): 12.5 percentage of control; HIV-1-induced syncytium formation in CEM cells (single drug 2.5 μg/ml, day 18 post infection): 75 percentage of control; HIV-1-induced syncytium formation in CEM cells (single drug 2.5 μg/ml, day 21 post infection): 100 percentage of control; HIV-1-induced syncytium formation in CEM cells (single drug 2.5 μg/ml, day 25 post infection): 100 percentage of control; HIV-1-induced syncytium formation in CEM cells (single drug 2.5 μg/ml, day 28 post infection): 100 percentage of control; HIV-1-induced syncytium formation in CEM cells (single drug 2.5 μg/ml, day 32 post infection): 100 percentage of control; HIV-1-induced syncytium formation in CEM cells (single drug 2.5 μg/ml, day 35 post infection): 100 percentage of control; HIV-1-induced syncytium formation in CEM cells (single drug 2.5 μg/ml, day 39 post infection): 100 percentage of control; HIV-1-induced syncytium formation in CEM cells (single drug 2.5 μg/ml, day 42 post infection): 100 percentage of control; HIV-1-induced syncytium formation in CEM cells (single drug 2.5 μg/ml, day 46 post infection): 100 percentage of control; HIV-1-induced syncytium formation in CEM cells (single drug 2.5 μg/ml, day 49 post infection): 100 percentage of control; HIV-1-induced syncytium formation in CEM cells (single drug 2.5 μg/ml, day 53 post infection): 100 percentage of control; HIV-1-induced syncytium formation in CEM cells (single drug 2.5 μg/ml, day 56 post infection): 100 percentage of control; HIV-1-induced syncytium formation in CEM cells (single drug 2.5 μg/ml, day 60 post infection): 100 percentage of control; HIV-1-induced syncytium formation in CEM cells (single drug 2.5 μg/ml, day 64 post infection): 100 percentage of control; HIV-1-induced syncytium formation in CEM cells (single drug 2.5 μg/ml, day 67 post infection): 100 percentage of control; HIV-1-induced syncytium formation in CEM cells (single drug 2.5 μg/ml, day 71 post infection): 100 percentage of control; HIV-1-induced syncytium formation in CEM cells (single drug 2.5 μg/ml, day 74 post infection): 100 percentage of control; HIV-1-induced syncytium formation in CEM cells (single drug 2.5 μg/ml, day 77 post infection): 100 percentage of control; HIV-1-induced syncytium formation in CEM cells (single drug 5.0 μg/ml, day 4 post infection): 0 percentage of control; HIV-1-induced syncytium formation in CEM cells (single drug 5.0 μg/ml, day 7 post infection): 0 percentage of control; HIV-1-induced syncytium formation in CEM cells (single drug 5.0 μg/ml, day 11 post infection): 0 percentage of control; HIV-1-induced syncytium formation in CEM cells (single drug 5.0 μg/ml, day 14 post infection): 12.5 percentage of control; HIV-1-induced syncytium formation in CEM cells (single drug 5.0 μg/ml, day 18 post infection): 75 percentage of control; HIV-1-induced syncytium formation in CEM cells (single drug 5.0 μg/ml, day 21 post infection): 100 percentage of control; HIV-1-induced syncytium formation in CEM cells (single drug 5.0 μg/ml, day 25 post infection): 100 percentage of control; HIV-1-induced syncytium formation in CEM cells (single drug 5.0 μg/ml, day 28 post infection): 100 percentage of control; HIV-1-induced syncytium formation in CEM cells (single drug 5.0 μg/ml, day 32 post infection): 100 percentage of control; HIV-1-induced syncytium formation in CEM cells (single drug 5.0 μg/ml, day 35 post infection): 100 percentage of control; HIV-1-induced syncytium formation in CEM cells (single drug 5.0 μg/ml, day 39 post infection): 100 percentage of control; HIV-1-induced syncytium formation in CEM cells (single drug 5.0 μg/ml, day 42 post infection): 100 percentage of control; HIV-1-induced syncytium formation in CEM cells (single drug 5.0 μg/ml, day 46 post infection): 100 percentage of control; HIV-1-induced syncytium formation in CEM cells (single drug 5.0 μg/ml, day 49 post infection): 100 percentage of control; HIV-1-induced syncytium formation in CEM cells (single drug 5.0 μg/ml, day 53 post infection): 100 percentage of control; HIV-1-induced syncytium formation in CEM cells (single drug 5.0 μg/ml, day 56 post infection): 100 percentage of control; HIV-1-induced syncytium formation in CEM cells (single drug 5.0 μg/ml, day 60 post infection): 100 percentage of control; HIV-1-induced syncytium formation in CEM cells (single drug 5.0 μg/ml, day 64 post infection): 100 percentage of control; HIV-1-induced syncytium formation in CEM cells (single drug 5.0 μg/ml, day 67 post infection): 100 percentage of control; HIV-1-induced syncytium formation in CEM cells (single drug 5.0 μg/ml, day 71 post infection): 100 percentage of control; HIV-1-induced syncytium formation in CEM cells (single drug 5.0 μg/ml, day 74 post infection): 100 percentage of control; HIV-1-induced syncytium formation in CEM cells (single drug 5.0 μg/ml, day 77 post infection): 100 percentage of control; virus breakthrough delayed till day (single drug, higher concentrations): 14 days
